Assay results published in patent US9321760B2 (Merck Patent GmbH, priority 2011, dated 2016).

Target: P70S6K (T412E mutant) (Homo sapiens (Human), UniProt P23443, T412E)
Test: P70S6K enzyme assay
Assay type: biochemical
Conditions: 3 nM P70S6K T412E mutant, 24 μM ATP, 1 μM FITC-AHA-AKRRRLSSLRA-OH substrate peptide, 90 min at 25° C.
Summary of the method: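 IC50s come from mobility-shift separation of phospho-product from FITC-AHA-AKRRRLSSLRA-OH substrate (1 μM) after the reaction was quenched with 10 mM EDTA. The reaction used 3 nM T412E-mutant enzyme and 24 μM ATP, running 90 min at 25° C in 100 mM Hepes pH 7.5 buffer.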

Chain of P70S6K (T412E mutant) (P23443 whole entry T412E): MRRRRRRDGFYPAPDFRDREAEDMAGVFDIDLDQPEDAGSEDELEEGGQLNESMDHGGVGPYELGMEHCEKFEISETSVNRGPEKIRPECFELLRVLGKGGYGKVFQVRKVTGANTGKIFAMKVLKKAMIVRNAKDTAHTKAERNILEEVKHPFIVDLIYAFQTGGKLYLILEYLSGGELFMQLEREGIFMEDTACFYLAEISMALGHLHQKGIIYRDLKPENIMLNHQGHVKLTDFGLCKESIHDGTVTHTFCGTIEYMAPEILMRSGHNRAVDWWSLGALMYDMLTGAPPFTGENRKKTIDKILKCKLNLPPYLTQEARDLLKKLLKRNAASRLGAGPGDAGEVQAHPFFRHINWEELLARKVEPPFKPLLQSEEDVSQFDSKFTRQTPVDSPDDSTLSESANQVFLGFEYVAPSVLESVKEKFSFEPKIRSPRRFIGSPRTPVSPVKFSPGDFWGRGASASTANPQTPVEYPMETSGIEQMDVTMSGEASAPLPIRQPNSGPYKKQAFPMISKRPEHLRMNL

Row | SMILES | IC50
1 | N#CC(c1cccc(C(F)(F)F)c1)N1CCN(c2ncnc(N)c2-c2ccc(F)cc2)CC1 (centres unmarked) [Example 152, {4-[6-Amino-5-(4-fluoro-phenyl)-pyrimidin-4-yl]-piperazin-1-yl}-(3-trifluoromethyl-phenyl)-acetonitrile] | > 1 µM
2 | NCC(c1cccc(C(F)(F)F)c1)N1CCN(c2ncnc(N)c2-c2ccc(F)cc2)CC1 (centres unmarked) [Example 153, 6-{4-[2-Amino-1-(3-trifluoromethyl-phenyl)-ethyl]-piperazin-1-yl}-5-(4-fluoro-phenyl)-pyrimidin-4-ylamine] | 0.011 µM
3 | N#CC(c1ccc(F)c(C(F)(F)F)c1)N1CCN(c2ncnc(N)c2-c2ccc(F)cc2)CC1 (centres unmarked) [Example 154, {4-[6-Amino-5-(4-fluoro-phenyl)-pyrimidin-4-yl]-piperazin-1-yl}-(4-fluoro-3-trifluoromethyl-phenyl)-acetonitrile] | > 1 µM
4 | NCC(c1ccc(F)c(C(F)(F)F)c1)N1CCN(c2ncnc(N)c2-c2ccc(F)cc2)CC1 (centres unmarked) [Example 155, 6-{4-[2-Amino-1-(4-fluoro-3-trifluoromethyl-phenyl)-ethyl]-piperazin-1-yl}-5-(4-fluoro-phenyl)-pyrimidin-4-ylamine] | 0.014 µM
5 | N#CC(c1ccc(Cl)c(Cl)c1)N1CCN(c2ncnc(N)c2-c2ccc(F)cc2)CC1 (centres unmarked) [Example 156, {4-[6-Amino-5-(4-fluoro-phenyl)-pyrimidin-4-yl]-piperazin-1-yl}-(3,4-dichloro-phenyl)-acetonitrile] | 0.13 µM
6 | NCC(c1ccc(Cl)c(Cl)c1)N1CCN(c2ncnc(N)c2-c2ccc(F)cc2)CC1 (centres unmarked) [Example 157, 6-{4-[2-Amino-1-(3,4-dichloro-phenyl)-ethyl]-piperazin-1-yl}-5-(4-fluoro-phenyl)-pyrimidin-4-ylamine] | 0.006 µM
7 | N#CC(c1ccc(F)cc1)N1CCN(c2ncnc(N)c2-c2ccc(F)cc2)CC1 (centres unmarked) [Example 158, {4-[6-Amino-5-(4-fluoro-phenyl)-pyrimidin-4-yl]-piperazin-1-yl}-(4-fluoro-phenyl)-acetonitrile] | 0.24 µM
8 | NCC(c1ccc(F)cc1)N1CCN(c2ncnc(N)c2-c2ccc(F)cc2)CC1 (centres unmarked) [Example 159, 6-{4-[2-Amino-1-(4-fluoro-phenyl)-ethyl]-piperazin-1-yl}-5-(4-fluoro-phenyl)-pyrimidin-4-ylamine] | 0.0044 µM
9 | N#CC(c1ccc(F)c(Cl)c1)N1CCN(c2ncnc(N)c2-c2ccc(F)cc2)CC1 (centres unmarked) [Example 160, {4-[6-Amino-5-(4-fluoro-phenyl)-pyrimidin-4-yl]-piperazin-1-yl}-(3-chloro-4-fluoro-phenyl)-acetonitrile] | 0.59 µM
10 | NCC(c1ccc(F)c(Cl)c1)N1CCN(c2ncnc(N)c2-c2ccc(F)cc2)CC1 (centres unmarked) [Example 161, 6-{4-[2-Amino-1-(3-chloro-4-fluoro-phenyl)-ethyl]-piperazin-1-yl}-5-(4-fluoro-phenyl)-pyrimidin-4-ylamine] | 0.004 µM
11 | N#CC(c1ccc(Cl)cc1)N1CCN(c2ncnc(N)c2-c2ccc(F)cc2)CC1 (centres unmarked) [Example 162, {4-[6-Amino-5-(4-fluoro-phenyl)-pyrimidin-4-yl]-piperazin-1-yl}-(4-chloro-phenyl)-acetonitrile] | 0.068 µM
12 | NCC(c1ccc(Cl)cc1)N1CCN(c2ncnc(N)c2-c2ccc(F)cc2)CC1 (centres unmarked) [Example 163, 6-{4-[2-Amino-1-(4-chloro-phenyl)-ethyl]-piperazin-1-yl}-5-(4-fluoro-phenyl)-pyrimidin-4-ylamine] | 0.0013 µM
13 | N#CC(c1ccc(Cl)c(F)c1)N1CCN(c2ncnc(N)c2-c2ccc(F)cc2)CC1 (centres unmarked) [Example 164, {4-[6-Amino-5-(4-fluoro-phenyl)-pyrimidin-4-yl]-piperazin-1-yl}-(4-chloro-3-fluoro-phenyl)-acetonitrile] | 0.044 µM
14 | NCC(c1ccc(Cl)c(F)c1)N1CCN(c2ncnc(N)c2-c2ccc(F)cc2)CC1 (centres unmarked) [Example 165, 6-{4-[2-Amino-1-(4-chloro-3-fluoro-phenyl)-ethyl]-piperazin-1-yl}-5-(4-fluoro-phenyl)-pyrimidin-4-ylamine] | 0.0009 µM
15 | N#CC(c1cccc(C(F)(F)F)c1)N1CCN(c2ncnc(N)c2Br)CC1 (centres unmarked) [Example 166, [4-(6-Amino-5-bromo-pyrimidin-4-yl)-piperazin-1-yl]-(3-trifluoromethyl-phenyl)-acetonitrile] | 6.1 µM
16 | N#CC(c1ccc(C(F)(F)F)cc1)N1CCN(c2ncnc(N)c2Br)CC1 (centres unmarked) [Example 167, [4-(6-Amino-5-bromo-pyrimidin-4-yl)-piperazin-1-yl]-(4-trifluoromethyl-phenyl)-acetonitrile] | > 1 µM
17 | N#CC(c1ccc(C(F)(F)F)cc1)N1CCN(c2ncnc(N)c2-c2ccc(F)cc2)CC1 (centres unmarked) [Example 168, {4-[6-Amino-5-(4-fluoro-phenyl)-pyrimidin-4-yl]-piperazin-1-yl}-(4-trifluoromethyl-phenyl)-acetonitrile] | 0.24 µM
18 | NCC(c1cccc(F)c1)N1CCN(c2ncnc(N)c2-c2ccc(F)cc2)CC1 (centres unmarked) [Example 169, 6-{4-[2-Amino-1-(3-fluoro-phenyl)-ethyl]-piperazin-1-yl}-5-(4-fluoro-phenyl)-pyrimidin-4-ylamine] | 0.0041 µM

Row | SMILES | IC50
19 | NCC(c1ccc(C(F)(F)F)cc1F)N1CCN(c2ncnc(N)c2-c2ccc(F)cc2)CC1 (centres unmarked) [Example 170, 6-{4-[2-Amino-1-(2-fluoro-4-trifluoromethyl-phenyl)-ethyl]-piperazin-1-yl}-5-(4-fluoro-phenyl)-pyrimidin-4-ylamine] | 0.012 µM
20 | C[C@H](c1ccccc1)[C@H](CN)N1CCN(c2ncnc(N)c2-c2ccc(F)cc2)CC1 [Example 171, 6-[4-((1R,2R)-1-Aminomethyl-2-phenyl-propyl)-piperazin-1-yl]-5-(4-fluoro-phenyl)-pyrimidin-4-ylamine] | 0.073 µM
21 | C[C@@H](c1ccccc1)[C@H](CN)N1CCN(c2ncnc(N)c2-c2ccc(F)cc2)CC1 [Example 172, 6-[4-((1R,2S)-1-Aminomethyl-2-phenyl-propyl)-piperazin-1-yl]-5-(4-fluoro-phenyl)-pyrimidin-4-ylamine] | 0.28 µM
22 | N#CC(c1ccc(Cl)nc1)N1CCN(c2ncnc(N)c2-c2ccc(F)cc2)CC1 (centres unmarked) [Example 173, {4-[6-Amino-5-(4-fluoro-phenyl)-pyrimidin-4-yl]-piperazin-1-yl}-(6-chloro-pyridin-3-yl)-acetonitrile] | 0.11 µM
23 | NCC(c1ccc(Cl)nc1)N1CCN(c2ncnc(N)c2-c2ccc(F)cc2)CC1 (centres unmarked) [Example 174, 6-{4-[2-Amino-1-(6-chloro-pyridin-3-yl)-ethyl]-piperazin-1-yl}-5-(4-fluoro-phenyl)-pyrimidin-4-ylamine] | 0.0085 µM
24 | NC[C@@H](c1ccc(Cl)nc1)N1CCN(c2ncnc(N)c2-c2ccc(F)cc2)CC1 [Example 175, 6-{4-[(R)-2-Amino-1-(6-chloro-pyridin-3-yl)-ethyl]-piperazin-1-yl}-5-(4-fluoro-phenyl)-pyrimidin-4-ylamine] | 0.0026 µM
25 | NC[C@H](c1ccc(Cl)nc1)N1CCN(c2ncnc(N)c2-c2ccc(F)cc2)CC1 [Example 176, 6-{4-[(S)-2-Amino-1-(6-chloro-pyridin-3-yl)-ethyl]-piperazin-1-yl}-5-(4-fluoro-phenyl)-pyrimidin-4-ylamine] | 0.0008 µM
26 | CCc1c(N)ncnc1N1CCN(C(CN)c2ccc(Cl)nc2)CC1 (centres unmarked) [Example 177, 6-{4-[2-Amino-1-(6-chloro-pyridin-3-yl)-ethyl]-piperazin-1-yl}-5-ethyl-pyrimidin-4-ylamine] | 0.2 µM
27 | CCc1c(N)ncnc1N1CCN(C(CN)c2ccc(Cl)cc2)CC1 (centres unmarked) [Example 178, 6-{4-[2-Amino-1-(4-chloro-phenyl)-ethyl]-piperazin-1-yl}-5-ethyl-pyrimidin-4-ylamine] | 0.069 µM
28 | CCc1c(N)ncnc1N1CCN([C@H](CN)c2ccc(Cl)cc2)CC1 [Example 179, 6-{4-[(S)-2-Amino-1-(4-chloro-phenyl)-ethyl]-piperazin-1-yl}-5-ethyl-pyrimidin-4-ylamine] | 0.013 µM
29 | CCc1c(N)ncnc1N1CCN([C@@H](CN)c2ccc(Cl)cc2)CC1 [Example 180, 6-{4-[(R)-2-Amino-1-(4-chloro-phenyl)-ethyl]-piperazin-1-yl}-5-ethyl-pyrimidin-4-ylamine] | 0.19 µM
30 | CCc1c(N)ncnc1N1CCN(C(CN)c2ccc3c(c2)OCCO3)CC1 (centres unmarked) [Example 181, 6-{4-[2-Amino-1-(2,3-dihydro-benzo[1,4]dioxin-6-yl)-ethyl]-piperazin-1-yl}-5-ethyl-pyrimidin-4-ylamine] | 0.18 µM
31 | COc1ccc(C(C#N)N2CCN(c3ncnc(N)c3-c3ccc(F)cc3)CC2)cn1 (centres unmarked) [Example 182, 2-(4-(6-amino-5-(4-fluorophenyl)pyrimidin-4-yl)piperazin-1-yl)-2-(6-methoxypyridin-3-yl)acetonitrile] | 0.22 µM
32 | COc1ccc(C(CN)N2CCN(c3ncnc(N)c3-c3ccc(F)cc3)CC2)cn1 (centres unmarked) [Example 183, 6-(4-(2-amino-1-(6-methoxypyridin-3-yl)ethyl)piperazin-1-yl)-5-(4-fluorophenyl)pyrimidin-4-amine] | 0.0034 µM
33 | CS(=O)(=O)c1ccc(C(C#N)N2CCN(c3ncnc(N)c3-c3cn[nH]c3)CC2)cc1 (centres unmarked) [Example 184, 2-(4-(6-amino-5-(1H-pyrazol-4-yl)pyrimidin-4-yl)piperazin-1-yl)-2-(4-(methylsulfonyl)phenyl)acetonitrile] | > 1 µM
34 | CS(=O)(=O)c1ccc(C(CN)N2CCN(c3ncnc(N)c3-c3cn[nH]c3)CC2)cc1 (centres unmarked) [Example 185, 6-(4-(2-amino-1-(4-(methylsulfonyl)phenyl)ethyl)piperazin-1-yl)-5-(1H-pyrazol-4-yl)pyrimidin-4-amine] | 0.06 µM
35 | NCC(c1ccc(OC(F)(F)F)cc1)N1CCN(c2ncnc(N)c2-c2cn[nH]c2)CC1 (centres unmarked) [Example 186, 6-(4-(2-amino-1-(4-(trifluoromethoxy)phenyl)ethyl)piperazin-1-yl)-5-(1H-pyrazol-4-yl)pyrimidin-4-amine] | 0.0014 µM
